Measured values: patent US20210161997A1, “TREATING DISEASES VIA TARGETED MODULATION OF GENE SIGNALING NETWORKS” (Camp4 Therapeutics Corporation, priority 2018, published 2021)

Assays:
[1] = test system: SLC37A4; assay: RNA-seq of SLC37A4 expression in compound-treated primary human hepatocytes; format: cell-based
Description: Human hepatocytes were obtained from two donors from Massachusetts General Hospital, namely MGH54 and MGH63, and one donor from Lonza, namely HUM4111B. Cryopreserved hepatocytes were cultured in plating media for 16 hours, transferred to maintenance media for 4 hours. Cultured on serum-free media for 2 hours, then a compound was added. The hepatocytes were maintained on the serum-free media for 16 hours prior to gene expression analysis. Primary human hepatocytes were stored in the vapor phase of a liquid nitrogen freezer (about −130° C.).
Human hepatocytes cultured as described above were plated in 24-well format, adding 375,000 cells per well in a volume of 500 ul plating medium. Four hours before treatment, cells were washed with PBS and the medium was changed to either: fresh maintenance medium (complete) or modified maintenance medium.
Compound stocks were prepared at 1000× final concentration and added in a 2-step dilution to the medium to reduce risk of a compound precipitating out of solution when added to the cells, and to ensure reasonable pipetting volumes. One at a time, each compound was first diluted 10-fold in warm (about 37° C.) modified maintenance medium (initial dilution=ID), mixed by vortexing, and the ID was diluted 100-fold into the cell culture (e.g. 5.1 ul into 1 well of a 24-well plate containing 0.5 mL medium). The plate was mixed by carefully swirling and after all wells were treated and returned to the incubator overnight. If desired, separate plates/wells were treated with vehicle-only controls and/or positive controls. If using multi-well plates, controls were included on each plate. After about 18 hours, cells were harvested for further analysis, e.g., ChIP-seq, RNA-seq, ATAC-seq, etc.
This protocol is a modified version of the following protocols: MagMAX mirVana Total RNA Isolation Kit User Guide (Applied Biosystems #MAN0011131 Rev B.0), NEBNext Poly(A) mRNA Magnetic Isolation Module (E7490), and NEBNext Ultra Directional RNA Library Prep Kit for Illumina (E7420) (New England Biosystems #E74901).
The MagMAX mirVana kit instructions (the section titled “Isolate RNA from cells” on pages 14-17) were used for isolation of total RNA from cells in culture. Two hundred μl of Lysis Binding Mix was used per well of the multiwell plate containing adherent cells (usually a 24-well plate).
For mRNA isolation and library prep, the NEBNext Poly(A) mRNA Magnetic Isolation Module and Directional Prep kit was used. RNA isolated from cells above was quantified, and prepared in […] of each sample in 50 μl of nuclease-free water. This protocol may be run in microfuge tubes or in a 96-well plate.
All pass filter reads from each sample were mapped against the human genome (assembly GRCh38/GCA_000001405.15 “no alt” analysis set merged with hs38d1/GCA_000786075.2) using two pass mapping via STAR version 2.5.3a (alignment parameters alignIntronMin=20; alignIntronMax=1000000; outFilterMismatchNmax=999; outFilterMismatchNoverLmax=0.05; outFilterType=BySJout; outFilterMultimapNmax=20; alignSJoverhangMin=8; alignSJDBoverhangMin=1; alignMatesGapMax=1000000) (Dobin et al., Bioinformatics (2012) 29(1):15-21). Genomic alignments were converted to transcriptome alignments based on reference transcript annotations from the Human GENCODE Gene Set release 24 (Harrow et al., Genome Res. (2012) 22(9): 1760-1774). Using unique and multimapped transcriptomic alignments, gene-level abundance estimates were computed using RSEM version 1.3.0 (Li and Dewey, BMC Bioinformatics (2011) 12:323) in a strand-aware manner, and including confidence interval sampling calculations, to arrive at posterior mean estimates (PME) of abundances (counts and normalized FPKM—fragments per kilobase of exon per million mapped fragments) from the underlying Bayesian model. Standard QC were applied (read integrity, mapping statistics, library complexity, fragment bias) to remove unsatisfactory samples.

[2] = test system: JAG1; assay: RNA-seq of JAG1 expression in compound-treated primary human hepatocytes; format: cell-based; conditions: for JAG1 Fold Change (Log2): primary human hepatocytes; for Significant modulation of JAG1 (in words): summary of Table 6
Summary of the method: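 Cryopreserved primary human hepatocytes from three donors, switched to serum-free medium 2 h before compound addition, were harvested about 18 h after treatment. Poly(A) mRNA was sequenced and aligned to GENCODE release 24, with DESeq2 negative binomial differential expression. Fold change is the treated level over the unperturbed level.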

| Structure (SMILES) | SLC37A4 Fold Change (Log2) [1] | JAG1 Fold Change (Log2) [2] | Significant modulation of JAG1 (in words) [2] |
| --- | --- | --- | --- |
| S=C(NCc1ccc2c(c1)OCO2)N1CCN(c2ncnc3c2oc2ccccc23)CC1 [Amuvatinib] | 0.97 Log2 | 0.74 Log2 | significantly modulate only JAG1 |
| O=C1CCC(N2C(=O)c3ccccc3C2=O)C(=O)N1 (stereo not drawn) [Thalidomide] | 0.64 Log2 | 1.30 Log2 | significantly modulate only JAG1 |
